Results: BindingDB's records for patent US20240277683 (Ctxt, 2024)

Legend:
[1] = biological target: Histone acetyltransferase KAT7 (Homo sapiens, UniProt O95251); test: Acetyltransferase Biochemical Assay
Experimental: (§1) The reactions were performed in assay buffer (100 mM Tris-HCl, pH7.8, 15 mM NaCl, 1 mM EDTA, 0.01% Tween-20, 1 mM Dithiothreitol and 0.01% m/v chicken egg white albumin). […] 11-point dilution series of the test compounds were prepared in DMSO; a volume of 100 nL was transferred using a pin tool into assay plates containing substrates, […] control reactions were included on the same plates and received the same amount of DMSO as the compound treated wells. After adding all reagents, the plates were sealed with adhesive seals and incubated for 90 min at room temperature. An additional 4 uL of assay buffer containing AlphaScreen Protein A acceptor beads […] was then added.

[2] = biological target: Histone acetyltransferase KAT5 (Homo sapiens, UniProt Q92993); test: Acetyltransferase Biochemical Assay
Histone acetyltransferase KAT5, sequence (Q92993 whole entry): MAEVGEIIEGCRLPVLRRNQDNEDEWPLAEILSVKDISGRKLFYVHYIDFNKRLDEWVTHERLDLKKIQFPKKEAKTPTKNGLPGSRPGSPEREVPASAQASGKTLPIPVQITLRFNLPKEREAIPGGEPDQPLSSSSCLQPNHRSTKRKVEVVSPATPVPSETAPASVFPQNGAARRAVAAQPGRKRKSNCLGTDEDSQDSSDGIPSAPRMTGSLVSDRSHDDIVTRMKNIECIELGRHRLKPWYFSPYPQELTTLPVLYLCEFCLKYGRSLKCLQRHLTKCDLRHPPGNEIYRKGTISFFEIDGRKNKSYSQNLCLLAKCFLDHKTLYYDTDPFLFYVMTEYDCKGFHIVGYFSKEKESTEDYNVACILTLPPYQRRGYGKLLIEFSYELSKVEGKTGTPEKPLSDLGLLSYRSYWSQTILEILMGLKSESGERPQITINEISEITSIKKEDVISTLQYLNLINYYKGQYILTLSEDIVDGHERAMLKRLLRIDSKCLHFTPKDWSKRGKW
Experimental: as §1

Histone acetyltransferase KAT7, sequence (O95251 whole entry): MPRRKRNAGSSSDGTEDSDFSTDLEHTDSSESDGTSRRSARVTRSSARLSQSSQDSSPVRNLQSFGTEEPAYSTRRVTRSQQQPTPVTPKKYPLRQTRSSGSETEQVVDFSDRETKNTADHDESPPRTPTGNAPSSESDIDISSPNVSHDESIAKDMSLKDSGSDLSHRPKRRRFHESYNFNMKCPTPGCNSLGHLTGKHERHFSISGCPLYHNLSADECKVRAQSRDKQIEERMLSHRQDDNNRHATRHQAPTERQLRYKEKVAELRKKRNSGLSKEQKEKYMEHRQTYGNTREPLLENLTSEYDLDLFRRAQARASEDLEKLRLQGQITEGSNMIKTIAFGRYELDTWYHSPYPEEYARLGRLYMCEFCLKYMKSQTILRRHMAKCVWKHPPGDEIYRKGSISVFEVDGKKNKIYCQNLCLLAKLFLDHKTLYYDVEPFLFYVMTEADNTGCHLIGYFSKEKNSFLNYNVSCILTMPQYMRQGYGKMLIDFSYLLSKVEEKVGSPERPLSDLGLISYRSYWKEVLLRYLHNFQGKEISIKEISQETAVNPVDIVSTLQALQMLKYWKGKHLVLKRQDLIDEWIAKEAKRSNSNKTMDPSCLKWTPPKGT

SMILES | IC50 [1] | IC50 [2]
O=S(=O)(Nc1cc(-c2ccccc2)on1)C1CC1 [US20240277683, Example 29] | > 125 µM | > 125 µM
O=S(=O)(Nc1cc(-c2ccccc2)on1)c1ccc2c(c1)CCCC2 [US20240277683, Example 76] | – | > 125 µM
COc1ccccc1-c1nnc(NS(=O)(=O)C2CCNCC2)s1 [US20240277683, Example 129] | – | > 125 µM
